Experiment: SP value (solubility parameter) calculated by formula 1
Details: 25°C (298 K), formula {(ΔH - RT)/(M/D)}^1/2

| SP value | SMILES |
| --- | --- |
| 12.6 (cal/cm^3)^1/2 | CC(O)CO (stereo not drawn) [Propylene glycol, 1,2-propanediol] |
| 11.3 (cal/cm^3)^1/2 | CC(O)COC(C)COC(C)CO (stereo not drawn) [Tripropylene glycol] |
| 14.9 (cal/cm^3)^1/2 | OCC(O)CO [Glycerin, glycerin] |

From patent EP4700095A1, “INK COMPOSITION FOR INK-JET PRINTING” (Sakata INX Corporation, priority 2023, dated 2024)
